Laboratory results taken from patent US9101642B2, “Ticagrelor co-crystal” (AstraZeneca AB, priority 2011, dated 2015).

Assays:
[1] = Micro-dissolution in blank Fassif (fasted intestinal fluid without micelle forming components); format: physicochemical; conditions: blank Fassif pH 6.5, 9 mg in 25 ml, mean of n = 2
Experimental: (§1) Micro-dissolution investigations were performed on 9 mg of a sample of Compound A:acetyl salicylic acid co-crystal (prepared as described in Example 4) or Compound A Form II in both 25 ml of (i) Fasted intestinal fluid (Fassif) without micelle forming components (termed blank Fassif) and (ii) of Simulated Gastric Fluid (SGF). The samples were magnetically stirred and aliquots were taken at appropriate time intervals, centrifuged and the supernatant analysed by HPLC and the concentration of Compound A measured as a function of time.
Fasted intestinal fluid without micelle forming components (blank Fassif) media was prepared from 0.348 g NaOH pellets, 3.954 g NaH2PO4.H2O and 6.186 g NaCl in 1 L milli-Q water. The pH was then adjusted to pH 6.5 with 1N NaOH or 1N HCl.

[2] = Micro-dissolution in Simulated Gastric Fluid (SGF); format: physicochemical; conditions: 9 mg in 25 ml, mean of n = 2
Experimental: as §1
Simulated Gastric Fluid (SGF) media was prepared by adding 131.5 ml 1M HCl to 4 g NaCl and the resulting solution made up to 2 Liters with milli-Q water (de-ionised water).

Concentration of Compound A ([1]; time 0 mins): 0 ng/mL
Concentration of Compound A ([1]; time 10 mins): 2950 ng/mL
Concentration of Compound A ([1]; time 20 mins): 3240 ng/mL
Concentration of Compound A ([1]; time 30 mins): 3310 ng/mL
Concentration of Compound A ([1]; time 60 mins): 3510 ng/mL
Concentration of Compound A ([1]; time 240 mins): 3370 ng/mL
Concentration of Compound A ([2]; time 0 mins): 0 ng/mL
Concentration of Compound A ([2]; time 10 mins): 7820 ng/mL
Concentration of Compound A ([2]; time 20 mins): 8100 ng/mL
Concentration of Compound A ([2]; time 30 mins): 8520 ng/mL
Concentration of Compound A ([2]; time 60 mins): 8100 ng/mL
Concentration of Compound A ([2]; time 240 mins): 8450 ng/mL
SMILES: CCCSc1nc(N[C@@H]2C[C@H]2c2ccc(F)c(F)c2)c2nnn([C@@H]3C[C@H](OCCO)[C@@H](O)[C@H]3O)c2n1 (relative stereo) [Compound A Form II, {1S-[1α,2α, 3β(1S*,2R*),5β]}-3-(7-{[2-(3,4-difluorophenyl)cyclopropyl]amino}-5-(propylthio)-3H-1,2,3-triazolo[4,5-d]pyrimidin-3-yl)-5-(2-hydroxyethoxy)cyclopentane-1,2-diol]
